Data as given in PubChem BioAssay (NCI).
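Interpolation was linear, between the two tested concentrations surrounding the appropriate level; five concentrations were tested over 48 hours in 96-well plates. GI50 = concentration required for 50% inhibition of growth. TGI: total growth inhibition.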

What was measured:
Assay in all cases: DTP human tumour cell line panel, 48 h; in the data active = GI50 below about 0.43 µM; inactive = the rest
MOLT-4 leukemia = test system: MOLT-4 leukemia
SK-OV-3 ovarian = test system: SK-OV-3 ovarian
MDA-MB-435 = test system: MDA-MB-435
EKVX NSCLC = test system: EKVX NSCLC
NCI-H23 lung = test system: NCI-H23 lung
UACC-62 melanoma = test system: UACC-62 melanoma
HOP-92 NSCLC = test system: HOP-92 NSCLC
IGROV1 ovarian = test system: IGROV1 ovarian
MDA-MB-231 breast = test system: MDA-MB-231 breast
SK-MEL-28 melanoma = test system: SK-MEL-28 melanoma
SF-268 CNS = test system: SF-268 CNS
OVCAR-5 ovarian = test system: OVCAR-5 ovarian
OVCAR-4 ovarian = test system: OVCAR-4 ovarian
HCT-116 colon = test system: HCT-116 colon
NCI-H460 lung = test system: NCI-H460 lung
NCI-H226 lung = test system: NCI-H226 lung
HT29 colon = test system: HT29 colon
MDA-N = test system: MDA-N
LOX IMVI melanoma = test system: LOX IMVI melanoma
OVCAR-3 ovarian = test system: OVCAR-3 ovarian
CCRF-CEM leukemia = test system: CCRF-CEM leukemia
SK-MEL-2 melanoma = test system: SK-MEL-2 melanoma
UACC-257 melanoma = test system: UACC-257 melanoma
HS 578T breast = test system: HS 578T breast
MCF7 breast = test system: MCF7 breast
KM12 colon = test system: KM12 colon
HCC-2998 colon = test system: HCC-2998 colon
NCI-H522 lung = test system: NCI-H522 lung
SNB-75 CNS = test system: SNB-75 CNS
M14 melanoma = test system: M14 melanoma
SW-620 colon = test system: SW-620 colon
COLO 205 colon = test system: COLO 205 colon
MALME-3M melanoma = test system: MALME-3M melanoma
TK-10 renal = test system: TK-10 renal
NCI/ADR-RES ovarian = test system: NCI/ADR-RES ovarian
K-562 leukemia = test system: K-562 leukemia
SK-MEL-5 melanoma = test system: SK-MEL-5 melanoma
DU-145 prostate = test system: DU-145 prostate
SF-295 CNS = test system: SF-295 CNS
BT-549 breast = test system: BT-549 breast
A549 NSCLC = test system: A549 NSCLC
T-47D breast = test system: T-47D breast
RPMI-8226 leukemia = test system: RPMI-8226 leukemia
SNB-19 CNS = test system: SNB-19 CNS
ACHN renal = test system: ACHN renal
786-0 renal = test system: 786-0 renal
PC-3 prostate = test system: PC-3 prostate
UO-31 renal = test system: UO-31 renal
SR leukemia = test system: SR leukemia
OVCAR-8 ovarian = test system: OVCAR-8 ovarian
HL-60(TB) leukemia = test system: HL-60(TB) leukemia
RXF 393 renal = test system: RXF 393 renal
CAKI-1 renal = test system: CAKI-1 renal
HOP-62 NSCLC = test system: HOP-62 NSCLC
HCT-15 colon = test system: HCT-15 colon
U251 CNS = test system: U251 CNS
SN12C renal = test system: SN12C renal
SF-539 CNS = test system: SF-539 CNS
A498 renal = test system: A498 renal

COC(=O)N1C2C(C[C@@]1(C)C(=O)OC)c1ccccc1N2S(=O)(=O)c1ccccc1 (some centres undefined)
> 100 µM: TGI (MOLT-4 leukemia) | TGI (SK-OV-3 ovarian) | TGI (MDA-MB-435) | TGI (EKVX NSCLC) | TGI (NCI-H23 lung) | TGI (UACC-62 melanoma) | TGI (HOP-92 NSCLC) | TGI (IGROV1 ovarian) | TGI (MDA-MB-231 breast) | TGI (SK-MEL-28 melanoma) | TGI (SF-268 CNS) | TGI (OVCAR-5 ovarian) | TGI (OVCAR-4 ovarian) | TGI (HCT-116 colon) | TGI (NCI-H460 lung) | TGI (NCI-H226 lung) | TGI (HT29 colon) | TGI (MDA-N) | TGI (LOX IMVI melanoma) | TGI (OVCAR-3 ovarian) | TGI (CCRF-CEM leukemia) | TGI (SK-MEL-2 melanoma) | TGI (UACC-257 melanoma) | TGI (HS 578T breast) | TGI (MCF7 breast) | TGI (KM12 colon) | TGI (HCC-2998 colon) | TGI (NCI-H522 lung) | TGI (SNB-75 CNS) | TGI (M14 melanoma) | TGI (SW-620 colon) | TGI (COLO 205 colon) | TGI (MALME-3M melanoma) | TGI (TK-10 renal) | TGI (NCI/ADR-RES ovarian) | TGI (K-562 leukemia) | TGI (SK-MEL-5 melanoma) | TGI (DU-145 prostate) | TGI (SF-295 CNS) | TGI (BT-549 breast) | TGI (A549 NSCLC) | TGI (T-47D breast) | TGI (RPMI-8226 leukemia) | TGI (SNB-19 CNS) | TGI (ACHN renal) | TGI (786-0 renal) | TGI (PC-3 prostate) | TGI (UO-31 renal) | TGI (SR leukemia) | TGI (OVCAR-8 ovarian) | TGI (HL-60(TB) leukemia) | TGI (RXF 393 renal) | TGI (CAKI-1 renal)

Cc1cnc2c(c1)C(=O)N(c1ccc(Br)cc1)S2(=O)=O
> 100 µM: TGI (MOLT-4 leukemia) | TGI (SK-OV-3 ovarian) | TGI (MDA-MB-435) | TGI (HOP-62 NSCLC) | TGI (EKVX NSCLC) | TGI (NCI-H23 lung) | TGI (UACC-62 melanoma) | TGI (IGROV1 ovarian) | TGI (MDA-MB-231 breast) | TGI (SK-MEL-28 melanoma) | TGI (SF-268 CNS) | TGI (OVCAR-5 ovarian) | TGI (OVCAR-4 ovarian) | TGI (HCT-116 colon) | TGI (NCI-H460 lung) | TGI (NCI-H226 lung) | TGI (HT29 colon) | TGI (MDA-N) | TGI (LOX IMVI melanoma) | TGI (OVCAR-3 ovarian) | TGI (CCRF-CEM leukemia) | TGI (SK-MEL-2 melanoma) | TGI (UACC-257 melanoma) | TGI (HS 578T breast) | TGI (MCF7 breast) | TGI (KM12 colon) | TGI (HCC-2998 colon) | TGI (HCT-15 colon) | TGI (NCI-H522 lung) | TGI (SNB-75 CNS) | TGI (M14 melanoma) | TGI (SW-620 colon) | TGI (COLO 205 colon) | TGI (U251 CNS) | TGI (MALME-3M melanoma) | TGI (TK-10 renal) | TGI (NCI/ADR-RES ovarian) | TGI (SK-MEL-5 melanoma) | TGI (SN12C renal) | TGI (DU-145 prostate) | TGI (SF-295 CNS) | TGI (BT-549 breast) | TGI (A549 NSCLC) | TGI (T-47D breast) | TGI (RPMI-8226 leukemia) | TGI (SNB-19 CNS) | TGI (ACHN renal) | TGI (786-0 renal) | TGI (PC-3 prostate) | TGI (UO-31 renal) | TGI (SF-539 CNS) | TGI (OVCAR-8 ovarian) | TGI (HL-60(TB) leukemia) | TGI (CAKI-1 renal)

O=C(O)CC(S)C(=O)O.[Li+].[Sb] (centres undefined)
inactive: GI50 (MOLT-4 leukemia) 64.8 µM | GI50 (MDA-MB-435) > 100 µM | GI50 (HOP-62 NSCLC) 44.2 µM | GI50 (EKVX NSCLC) > 100 µM | GI50 (NCI-H23 lung) > 100 µM | GI50 (UACC-62 melanoma) > 100 µM | GI50 (HOP-92 NSCLC) > 100 µM | GI50 (IGROV1 ovarian) > 100 µM | GI50 (MDA-MB-231 breast) > 100 µM | GI50 (SK-MEL-28 melanoma) 55.5 µM | GI50 (SF-268 CNS) > 100 µM | GI50 (OVCAR-5 ovarian) > 100 µM | GI50 (OVCAR-4 ovarian) > 100 µM | GI50 (HCT-116 colon) > 100 µM | GI50 (NCI-H460 lung) 89.5 µM | GI50 (NCI-H226 lung) > 100 µM | GI50 (HT29 colon) 88.6 µM | GI50 (MDA-N) > 100 µM | GI50 (LOX IMVI melanoma) 47.1 µM | GI50 (OVCAR-3 ovarian) > 100 µM | GI50 (CCRF-CEM leukemia) 57 µM | GI50 (SK-MEL-2 melanoma) 40.5 µM | GI50 (UACC-257 melanoma) > 100 µM | GI50 (HS 578T breast) > 100 µM | GI50 (KM12 colon) > 100 µM | GI50 (HCT-15 colon) > 100 µM | GI50 (M14 melanoma) 39.5 µM | GI50 (SW-620 colon) > 100 µM | GI50 (U251 CNS) 39.9 µM | GI50 (TK-10 renal) > 100 µM | GI50 (NCI/ADR-RES ovarian) > 100 µM | GI50 (K-562 leukemia) 85.3 µM | GI50 (SK-MEL-5 melanoma) 13.7 µM | GI50 (SN12C renal) > 100 µM | GI50 (DU-145 prostate) > 100 µM | GI50 (SF-295 CNS) 55.3 µM | GI50 (A498 renal) > 100 µM | GI50 (BT-549 breast) > 100 µM | GI50 (A549 NSCLC) > 100 µM | GI50 (T-47D breast) > 100 µM | GI50 (RPMI-8226 leukemia) 63.3 µM | GI50 (SNB-19 CNS) > 100 µM | GI50 (ACHN renal) > 100 µM | GI50 (786-0 renal) > 100 µM | GI50 (PC-3 prostate) > 100 µM | GI50 (UO-31 renal) > 100 µM | GI50 (SR leukemia) 32.9 µM | GI50 (OVCAR-8 ovarian) > 100 µM | GI50 (HL-60(TB) leukemia) > 100 µM | GI50 (RXF 393 renal) > 100 µM | GI50 (CAKI-1 renal) > 100 µM
> 100 µM: TGI (MOLT-4 leukemia) | TGI (MDA-MB-435) | TGI (HOP-62 NSCLC) | TGI (EKVX NSCLC) | TGI (NCI-H23 lung) | TGI (UACC-62 melanoma) | TGI (HOP-92 NSCLC) | TGI (IGROV1 ovarian) | TGI (MDA-MB-231 breast) | TGI (SK-MEL-28 melanoma) | TGI (SF-268 CNS) | TGI (OVCAR-5 ovarian) | TGI (OVCAR-4 ovarian) | TGI (HCT-116 colon) | TGI (NCI-H460 lung) | TGI (NCI-H226 lung) | TGI (HT29 colon) | TGI (MDA-N) | TGI (LOX IMVI melanoma) | TGI (OVCAR-3 ovarian) | TGI (CCRF-CEM leukemia) | TGI (SK-MEL-2 melanoma) | TGI (UACC-257 melanoma) | TGI (HS 578T breast) | TGI (KM12 colon) | TGI (HCT-15 colon) | TGI (M14 melanoma) | TGI (SW-620 colon) | TGI (U251 CNS) | TGI (TK-10 renal) | TGI (NCI/ADR-RES ovarian) | TGI (K-562 leukemia) | TGI (SN12C renal) | TGI (DU-145 prostate) | TGI (SF-295 CNS) | TGI (A498 renal) | TGI (BT-549 breast) | TGI (A549 NSCLC) | TGI (T-47D breast) | TGI (RPMI-8226 leukemia) | TGI (SNB-19 CNS) | TGI (ACHN renal) | TGI (786-0 renal) | TGI (PC-3 prostate) | TGI (UO-31 renal) | TGI (SR leukemia) | TGI (OVCAR-8 ovarian) | TGI (HL-60(TB) leukemia) | TGI (RXF 393 renal) | TGI (CAKI-1 renal)
29 µM: TGI (SK-MEL-5 melanoma)
